These results are taken from paper PMC7956620 (Molecules, 2021).

For orientation: inhibition means the change of the read-out against control, counted positive when it falls.

In the assay the target is T1, human 5-HT3A receptor (Homo sapiens, UniProt P46098).
T1 construct: host or cells: Xenopus laevis oocytes injected with in vitro transcribed mRNA
T1 sequence (P46098 24-478): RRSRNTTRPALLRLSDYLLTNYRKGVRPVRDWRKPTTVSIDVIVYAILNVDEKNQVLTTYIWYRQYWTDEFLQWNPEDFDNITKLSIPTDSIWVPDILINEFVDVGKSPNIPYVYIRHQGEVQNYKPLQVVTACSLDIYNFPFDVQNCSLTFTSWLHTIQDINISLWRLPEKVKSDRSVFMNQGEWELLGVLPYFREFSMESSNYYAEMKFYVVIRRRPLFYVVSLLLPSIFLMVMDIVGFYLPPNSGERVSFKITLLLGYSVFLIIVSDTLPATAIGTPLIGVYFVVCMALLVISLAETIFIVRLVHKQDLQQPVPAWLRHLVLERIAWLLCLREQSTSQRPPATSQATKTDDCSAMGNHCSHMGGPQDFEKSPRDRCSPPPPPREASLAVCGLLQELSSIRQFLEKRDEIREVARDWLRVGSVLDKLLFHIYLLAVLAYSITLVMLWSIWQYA
The assay is described as follows: cell-based. The format is cell-based. The conditions noted are these: for inhibition of voltage ramp current activated by 5-HT: 100 µM 5-HT and EC. On the procedure:
Human 5-hydroxytryptamine (serotonin) receptor 3A cDNA (Genebank number: BC004453) was obtained from OriGene (Rockville, MD, USA). Figure 1A represents the chemical structure of two ergot alkaloids, EG and EC, obtained from Sigma-Aldrich (St. Louis, MO, USA). These ergot alkaloids were diluted in bath solution after dissolving in dimethyl sulfoxide (DMSO) for use as stock solutions. The final treatment concentration of DMSO was less than 0.01%. Xenopus laevis frogs were obtained from the Korean Xenopus Resource Center for Research (KXRCR000001, Chuncheon, Gangwondo, Korea), and other agents were purchased from Sigma-Aldrich.
To isolate oocytes, female Xenopus laevis were put into a container filled with ice and left for about one hour. When the blood vessels contracted and fell into a state similar to hibernation, the abdomen was incised, and the ovaries were removed and cut into small pieces in Ca^2+-free OR2 solution (82.5 mM NaCl, 2.5 mM KCl, 1 mM MgCl2, and 5 mM HEPES, pH 7.4) with 2 mg/mL collagenase. After a 2 h agitation to digest the follicle membranes, isolated oocytes in stages Ⅴ and Ⅵ were selected and washed repeatedly. The selected oocytes were maintained in ND96 incubation solution (96 mM NaCl, 2 mM KCl, 1.8 mM CaCl2, 1 mM MgCl2, 5 mM HEPES, 2.5 mM sodium pyruvate, and 50 µg/mL gentamycin, pH 7.4) at 16–18 °C. The solution containing the oocytes was changed twice a day and stored in a shaking incubator. Under the microscope, the end of a glass capillary was broken and fitted with a 20 µm diameter needle and filled with mineral oil, discharging air bubbles from the tip. When the Xenopus oocytes were ready for injection, 50 ng of mRNA was injected with a nanoliter injector (Drummond Scientific, Vernon Hills, IL, USA). The recording was started after two days of sufficient shaking incubation in ND96 solution. Surgery, microinjections, and the other handling of Xenopus laevis followed the standard protocols.
The oocytes in which mRNA was expressed during the incubation period allowed for the estimation of channel or receptor properties for observing drug and ligand potential interactions using a two-electrode voltage clamp (OC-725C; Warner Instruments, Hamden, CT, USA) and Digidata (1322A; Molecular Devices, Sunnyvale, CA, USA). The two-electrode voltage clamp had voltage and current electrodes that stably maintained the potential and delivered the transmembrane potential and high current. […] A computer transferred the converted output amplitude of the voltage clamp amplifiers to an input digital converter using pClamp 10 software (Axon Instruments, Union City, CA, USA). The voltage and current electrodes were filled with 3 M KCl (0.3–0.7 MΩ) and analyzed at a −80 mV holding potential. The oocytes were placed in the chamber and exposed to a ND96 solution at a flow rate of 2 mL per minute. In the electrophysiological experiments, the voltage ramp recording was performed at room temperature, and a current from −80 to +60 mV was applied to determine the current and voltage relationships. Inward peak traces of the 5-HT3A receptor and voltage ramp traces were converted to a value through Clampfit 9.0 (Molecular Devices, San Jose, CA, USA).
In the experiments, all data were represented as the mean ± SEM (standard error of the mean) of the 5-HT-stimulated inward peak in the 5-HT3A receptors. […] All curves plotted through the Hill equation were generated using Origin Pro 7.0 (OriginLab, Northampton, MA, USA). The significance of differences between the control and chanoclavine treatment was determined according to the p-value in the Student’s t-test. p-values of less than 0.05 were considered statistically significant.

Molecules are shown by their SMILES. Read-outs that look alike come from different tables or passages of the source.

On to `CN[C@@H]1Cc2c[nH]c3cccc(c23)[C@H]1/C=C(\C)CO` [chanoclavine], for which, under “10 µM compound with 100 µM 5-HT, −80 mV, read-out: inhibition of I5-HT”, the inhibition at 10 µM turned out to be 4 ± 3.8%. For the setting “30 µM compound with 100 µM 5-HT, −80 mV, read-out: inhibition of I5-HT”, the inhibition at 30 µM amounted to 7.9 ± 4.1%. The inhibition at 100 µM runs as follows: (100 µM chanoclavine, wild type, read-out: Inhibition Percentage (%)) 42.5 ± 5.7%; (100 µM compound with 100 µM 5-HT, −80 mV, read-out: inhibition of I5-HT) 42.5 ± 9.7%. The inhibition at 200 µM (200 µM compound with 100 µM 5-HT, −80 mV, read-out: inhibition of I5-HT) is 61.6 ± 6.1%. Further, the inhibition at 300 µM (300 µM compound with 100 µM 5-HT, −80 mV, read-out: inhibition of I5-HT) is 75 ± 4.5%. Besides, the “Imax of normalized 5-HT concentration-response current” value by setting is: (5-HT 1 to 100 µM with 30 µM EC, −80 mV) 94.6 ± 24.4; (5-HT 1 to 100 µM with 100 µM EC, −80 mV) 60 ± 2.2. The “inhibition of voltage ramp current activated by 5-HT” value (from here on “inhibition … by 5-HT”) (+30 mV) is reported as 47.9 ± 3.4%, the “inhibition … by 5-HT” value (+60 mV) is listed as 49.5 ± 4% and the “inhibition … by 5-HT” value (−30 mV) came to 40.9 ± 1.1%. Moreover, under “Hill fit, co-application with 100 µM 5-HT, −80 mV”, the “maximum inhibition (Imax)” value is given as 83.6 ± 12.6%. Moreover, the IC50 (co-application with 5-HT, read-out: half-maximal inhibitory response concentration (IC50) for block of 5-HT-induced 5-HT3A response) came out at 107 µM. In addition, the “current relative to the control group” value (competing at the same rate as 5-HT) is given as “about 50%”. Also, the “manner of regulation of 5-HT3A-receptor channel activity” value (varied 5-HT concentration, fixed 30 or 100 µM chanoclavine) is given as “competitive”. For the same compound, the “effect of compound alone (without 5-HT)” value (−80 mV holding potential, data not shown) is “no change”.
